Laboratory results as given in patent US20220112225A1, “ANANDAMIDE COMPOUNDS” (priority 2019, published 2022).

Tests used:
[1] = PO JVC rat terminal PK study at 20 mg/kg (tissue distribution); format: in vivo; conditions: rat, 20 mg/kg PO; for Brain to Blood Ratio (corrected): corrected for 15 μL of blood per gram of brain tissue
Description: Compound 3 was orally dosed at 20 mg/kg to a group of nine, jugular vein cannulated, individually housed male Sprague Dawley rats that were fasted overnight and fed 4 h post-dose to assess its tissue distribution profile. Dosing was performed with 5 mL/kg dosing volumes with 5% DMSO, 95% water used as a dosing vehicle. Terminal blood samples (>230 μL) were taken from groups of 3 animals at each of 3 time-points post dose (1 h, 2 h, and 4 h) by cardiac puncture under CO2 into heparinised Eppendorf tubes (containing 5 μL heparin) on ice containing an equal quantity of water. Two 100 μL aliquots were then placed in duplicate 96 well plates on dry ice. Immediately after blood sampling, brain and eye pair samples were excised, weighed, rinsed, blotted, and snap frozen in liquid N2. Samples were stored in the freezer at −20° C. until bioanalysis.
Tissue samples were weighed and a volume of water 3 times the mass added to samples before homogenization. In the case of eyeballs the lens could not be homogenized, but all other tissues homogenized. The resulting data (tissue distribution parameters) are shown below in Table 2.

[2] = PO JVC rat PK study at 10 mg/kg; format: in vivo; conditions: male Sprague Dawley rats
Description: Compound 3 was orally dosed at 10 mg/kg to a group of 3 individually housed male Sprague Dawley rats that were fasted overnight and fed 4 h post-dose, the rats were fitted with JVCs. Dosing was performed with 5 mL/kg dosing volumes with 5% DMSO 95% water used as a dosing vehicle. Serial blood (150 μL) samples were taken from each animal at each timepoint (0.25 h, 0.5 h, 1 h, 2 h, 4 h, 6 h, 8 h, and 24 h) into heparinised Eppendorf tubes (containing 5 μL heparin) on ice containing an equal quantity of water. Two 100 μL aliquots were then placed in duplicate 96 well plates on dry ice. Samples were stored in the freezer at −20° C. until bioanalysis.
Samples were defrosted and acetonitrile (containing internal standard) was used to precipitate the proteins. All the samples were mixed, centrifuged and the supernatants analysed by LC-MS-MS according to the following procedures: • 1. 20 μL plasma was transferred to a v-bottom 96-well plate. • 2. 80 μL acetonitrile (ACN) containing IS was added to each well. • 3. The plate was sealed and gently mixed for approximately 30 s. • 4. Plates were centrifuged for 10 min at 3500 rpm. • 5. 50 μL supernatant was transferred to a fresh v-bottom 96-well plate containing 100 μL MilliQ water.
Plates were thermo-sealed and stored at 4° C. until analysis. The resulting PK parameters are shown below in Table 1.

[3] = In vitro brain homogenate stability, rat; format: in vitro ADME
Description: Fresh rodents brains were snap frozen immediately after collection and the assay performed on the same day. Brains were pre-incubated at 37° C. before being spiked with test compound at 1 μM. Samples were collected across 6 time points (0, 10, 20, 30, 45 and 60 minutes) and crashed in cold acetonitrile containing an internal standard (Leucine Enkephalin) and kept on ice until all samples had been collected. The samples were then shaken and centrifuged. 100 μL of supernatant was transferred to a plate containing 50 μL of MilliQ water and mixed. These plates were analyzed by LC-MS/MS over the 6 time points, where the percentage of test compound remaining was calculated using the peak area of the initial timepoint (T=0 minutes) as 100%. The natural log of the percentage remaining was then calculated. The natural log of the percentage remaining versus time (minutes) was plotted on a graph and the gradient of this graph was used to calculate the elimination rate constant (K), The half-life (t1/2) of test compound was calculated using the natural log of 2 divided by the elimination rate constant. The percentage of Compound 2 formed is reported below in Tables 4-6. FIGS. 9A-9F show results of the brain homogenate stability conducted with representative compounds of the Examples.

## 2-(5Z,8Z,11Z,14Z)-icosa-5,8,11,14-tetraenamidoethyl (trimethylammonio) ethylphosphate [Compound 3]
[1]; 1 h
  Brain to Blood Ratio (corrected): 0.25
[1]; 1 h post dose
  Blood: 108.4 ng/mL
  Brain: 28.3 ng/g
  Eye: 1035.4 ng/g
[1]; 2 h
  Brain to Blood Ratio (corrected): 1.69
[1]; 2 h post dose
  Blood: 16.7 ng/mL
  Brain: 28.5 ng/g
  Eye: 105.0 ng/g
[1]; 4 h
  Brain to Blood Ratio (corrected): 2.69
[1]; 4 h post dose
  Blood: 12.8 ng/mL
  Brain: 34.6 ng/g
  Eye: 104.4 ng/g
[2]; 10 mg/kg PO
  AUC0-inf: 2426.6 ng·h/mL
  AUC0-t: 2348.5 ng·h/mL
  Cmax: 372 ng/mL
  Tmax: 2.5 h
[2]; 10 mg/kg PO vs 3 mg/kg IV
  Bioavailability: 28 % F
[3]; 37° C., test compound at 1 μM
  Rat t1/2: 0.933 h
[3]; one hour incubation, increasing formation of Compound 2
  Clearance in brain homogenate stability study (in words): demonstrated a level of clearance
